# According to article PMC6305410, “High-Throughput Screening for Bacterial Glycosyltransferase Inhibitors” (Frontiers in Cellular and Infection Microbiology, 2018):
# Biological target: T1, NleB1 (Escherichia coli, UniProt Q8XBX8)
# T1 construct: GST-EHEC-NleB1 in pET42a (GST/His tagged), expressed in E. coli BL21 (DE3), nickel purified; some tag cleavage noted
# Settings: inhibitor; for % NleB1 inhibition (µM compound) / 10: 10 µM; for % NleB1 inhibition (µM compound) / 40: 40 µM; for % NleB1 inhibition (µM compound) / 80: 80 µM; for % NleB1 inhibition (µM compound) / 160: 160 µM; for % NleB1 inhibition (µM compound) / 20: 20 µM
SMILES,% NleB1 inhibition (µM compound) / 10,% NleB1 inhibition (µM compound) / 40,% NleB1 inhibition (µM compound) / 80,% NleB1 inhibition (µM compound) / 160,% NleB1 inhibition (µM compound) / 20
O=C(Cn1cc(COc2ccccc2C(F)(F)F)nn1)c1ccc(O)cc1 [KUC104085N],36.1%,51.8%,63.6%,78.4%,–
O=C(Cn1cc(COc2cccc([N+](=O)[O-])c2)nn1)c1ccc(O)cc1 [KUC104086N],24.5%,34.2%,32.8%,50.5%,24.5%
CC(=O)c1ccc(OCc2cn(CC(=O)c3ccc(O)cc3)nn2)c(F)c1 [KUC104088N],45.4%,59.8%,76.5%,92.0%,47.7%
Cc1cccc(C)c1OCc1cn(CC(=O)c2ccc(O)cc2)nn1 [KUC104090N],36.8%,53.2%,69.2%,85.8%,44.9%
O=C(Cn1cc(COc2c(F)c(F)cc(F)c2F)nn1)c1ccc(O)cc1 [KUC104092N],39.5%,57.8%,67.2%,80.6%,42.1%
CCCC(=O)c1ccc(OCc2cn(CC(=O)c3ccc(O)cc3)nn2)cc1 [KUC104099N],32.9%,45.2%,62.5%,77.5%,42.2%
CC(=O)Nc1ccc(OCc2cn(CC(=O)c3ccc(O)cc3)nn2)cc1 [KUC104101N],48.1%,74.6%,91.3%,98.1%,59.3%
CCC(=O)c1ccc(OCc2cn(CC(=O)c3ccc(O)cc3)nn2)cc1 [KUC104108N],21.0%,49.4%,67.7%,88.0%,35.3%
COc1ccc(OCc2cn(CC(=O)c3ccc(O)cc3)nn2)cc1 [KUC104109N],35.4%,53.9%,67.3%,82.9%,43.6%
O=Cc1cccc(OCc2cn(CC(=O)c3ccc(O)cc3)nn2)c1 [KUC104114N],31.8%,57.2%,76.5%,92.0%,42.3%
COc1ccc2cc([C@H](C)C(=O)OCc3cn(CC(=O)c4ccc(O)cc4)nn3)ccc2c1 [KUC104115N],40.2%,48.2%,61.4%,78.6%,44.0%
CC1C(=O)N(Cc2cn(CCC3OCCCO3)nn2)CCS(=O)(=O)N1Cc1ccc(-c2cccc(N(C)C)c2)cc1 (stereo not shown) [KUC104889N],26.6%,29.5%,35.9%,44.5%,28.9%
CCCCCC(=O)N1C[C@H](n2cc(COC(=O)c3ccccc3)nn2)[C@@H](O)C[C@@H]1c1ccc(Cl)cc1 [KUC105040N],9.1%,18.9%,40.4%,50.7%,14.5%
COCOCCn1cc(CN2CCS(=O)(=O)N(Cc3ccc(-c4ccc(OC)nc4)cc3)C(C(C)C)C2=O)nn1 (stereo not shown) [KUC105133N],30.4%,45.5%,62.2%,75.8%,40.4%
COc1ccc(-c2ccc(CN3C(C(C)C)C(=O)N(Cc4cn(CCC5OCCO5)nn4)CCS3(=O)=O)cc2)cn1 (stereo not shown) [KUC105137N],13.7%,41.5%,64.5%,79.7%,25.7%
COCOCCn1cc(CN2CCS(=O)(=O)N(Cc3ccc(-c4ccc(F)nc4)cc3)C(CC(C)C)C2=O)nn1 (stereo not shown) [KUC105149N],34.4%,42.6%,55.9%,69.5%,38.8%
CC(C)CC1C(=O)N(Cc2cn(CCC3OCCCO3)nn2)CCS(=O)(=O)N1Cc1ccc(-c2ccc(F)nc2)cc1 (stereo not shown) [KUC105151N],0.6%,31.9%,50.8%,53.0%,15.1%
CCCCN1CC(COCc2ccccc2)Oc2cccc(Oc3ccc(F)cc3OC)c2S1(=O)=O (stereo not shown) [KUC106008N],21.4%,20.7%,31.6%,55.9%,22.4%
O=C(c1ccc([N+](=O)[O-])cc1)N1[C@H](COCc2ccccc2)C=CS1(=O)=O [KUC107029N],30.6%,43.4%,48.6%,43.4%,41.5%
